Measurements as given in article PMC6831736, “Highly Variable Pharmacokinetics of Tyramine in Humans and Polymorphisms in OCT1, CYP2D6, and MAO-A” (Frontiers in Pharmacology, 2019).
Read-outs that look alike come from different tables or passages of the source.

How the values were obtained:
[1] = clinical
Procedure: In this open-label pharmacokinetic/pharmacodynamic study, pharmacokinetics and effects of 400 mg oral tyramine were analysed in relation to MAO-A, CYP2D6, and OCT1 genotypes in 88 healthy volunteers. Eighty percent of the participants were unselected volunteers from Göttingen area in Germany; the remaining 20% were selected from an internal database to enrich the study sample with rare OCT1 or CYP2D6 variants. With widely accepted statistical criteria (type I error of 0.05 and type II error of 0.2), at least 10 subjects with genetically defined very low activity of OCT1 or CYP2D6 and a similar or higher number without deficiency should be sufficient to confirm a relevant 50% change in tyramine plasma AUC as a result of genetic variation. Because of the very diverse and not pharmacokinetic-based literature data on the functional effects of MAO-A polymorphisms, no power calculation could be performed with regard to MAO-A genotypes. However, a sample size of nearly a hundred individuals should be sufficient to find genotypes with a population frequency of at least 5%. All volunteers gave their written informed consent before participation in the study. The study was approved by the ethics committee of the University of Göttingen. It was registered at the German Clinical Trials Registry and the World Health Organization International Clinical Trials Registry Platform (DRKS00008915; https://www.drks.de/DRKS00008915).
Plasma and urine concentrations of tyramine and 4-HPAA were analysed by HPLC with tandem mass spectrometry using tyramine-d4 (Santa Cruz Biotechnology, Inc., Dallas, TX, USA) as internal standard. GR 49336 (5-[[(methylamino)sulfonyl]methyl]-1H-indole-3-acetic acid; Santa Cruz Biotechnology, Inc.) was used as internal standard for 4-HPAA. The analytical standards for tyramine were obtained from Fluka (Morristown, NJ, USA) and for 4-HPAA from Sigma-Aldrich (Darmstadt, Germany). The limit of detection for tyramine was 0.1 ng/ml in plasma and 10 ng/ml in urine; for 4-HPAA, it was 5 ng/ml in plasma and 0.5 µg/ml in urine. The limit of quantification for tyramine was 0.25 ng/ml in plasma and 15 ng/ml in urine; for 4-HPAA, it was 15 ng/ml in plasma and 1.5 µg/ml in urine.
200 µl of plasma were precipitated in 1.5 ml Eppendorf tubes with 400 µl acetonitrile/methanol (9:1, v:v), including the internal standards. After 10 min on ice, tubes were centrifuged for 30 min at 13,000 rpm, and 300 µl of the supernatant were transferred to a microtiter plate. The supernatant was evaporated using nitrogen and re-dissolved in 0.1% formic acid. 10 µl were injected into the HPLC system. Chromatography was performed using a Shimadzu Nexera system with an API 4000 detector. Separation for analysis of tyramine and methyltyramine was performed at 40°C on a Brownlee SPP RP-Amide 100 x 4.6 mm, 2.7 µm particle size, column using water with 0.1% (v/v) formic acid, 2.57% acetonitrile, and 0.43% methanol as eluent. Detection (positive mode) of tyramine was based on the masses 139.1/121.1 and for tyramine-d4 on 142.0/125.0. Calibration range was 0.5 to 200 µg/l with coefficients of variation of 4.6%, 2.8%, and 2.6% at 2, 20, and 150 µg/l, respectively. Analysis of 4-HPAA was performed on the same system, using 0.1% formic acid, 17.14% acetonitrile, and 2.86% methanol as eluent and detection in the negative mode based on the masses 151.0/107.2 for 4-HPAA and 281.2/142.1 for the internal standard. Calibration range was between 0.03 and 20 mg/l and coefficients of variation were 4.7%, 4.2%, and 3.7% at 1, 5, and 15 mg/l.
Pharmacokinetic parameters were calculated by non-compartmental analysis using Phoenix 64 WinNonlin version 6 (Certara USA, Inc., Princeton NJ, USA). AUCinf of tyramine was calculated from time of dosing using the linear/log trapezoidal rule, and extrapolated to inﬁnity based on the last predicted concentration and using the terminal elimination rate constant (lambda z).

[2] = tested on: healthy volunteers; details: in vivo
Procedure: (§1) To avoid interference by dietary tyramine, food and drink (including alcohol) consumption was prohibited from the evening before the study day until the last blood and urine sampling, except for water at any time and bread with butter 3 h before and 3 h after tyramine administration. A medical examination and electrocardiogram measurement were conducted 3 h prior to tyramine administration. Blood samples were drawn 3 h before and at the following times after tyramine intake: 15, 30, and 45 min as well as 1, 1.5, 2, 2.5, 3, 4, and 6 h. Urine samples were taken from 3 h to 10 min before tyramine administration as well as from 0 to 3 h and from 3 to 6 h after. Blood samples were centrifuged (10 min, 4°C, 4,000 rpm) and plasma and urine samples were stored at −20°C until analysis. Blood pressure and heart rate were measured 3 h, 35 min, and 10 min before tyramine administration, and subsequently in 15 min intervals until 6 h after. In a subgroup of eight participants, blood pressure was continuously monitored based on an analysis of pulse pressure curves using the SOMNOtouch™ NIPB non-invase system (SOMNOmedics GmbH, Randersacker, Germany). An orthostatic blood pressure test was performed 10 min before as well as 30 min and 1.5 h after tyramine intake. Pupillometry was performed 35 min prior to, and 1, 2, and 6 h after tyramine administration. Participants were asked to report on symptoms possibly related to tyramine (headache, fatigue, sleepiness, visual or hearing impairments, restlessness, nausea, dizziness, dry mouth, tremor, sensation of cold, and heart palpitation) using visual analogue scales 3 h before and 1, 3, and 6 h after tyramine intake.
(§2) The primary endpoint was the AUC of tyramine in plasma. Secondary endpoints were the other pharmacokinetic parameters of tyramine and its metabolite 4-HPAA, as well as heart rate, blood pressure, pupil size effects, and possible adverse events (headache, fatigue, visual or hearing impairments, restlessness, nausea, dizziness, dry mouth, tremor, hypothermia, heart palpitations). In addition, the cumulative amounts of tyramine and 4-HPAA excreted in urine were measured over time periods of 3 h before (baseline) and 6 h after application.

[3] = tested on: healthy volunteers; assay: Blood pressure and heart rate effects after 400 mg oral tyramine; format: in vivo, human
Excerpt: Purity was confirmed by HPLC.

[4] = tested on: organic cation transporter 1 (OCT1, or SLC22A1); parameters: method as in Breidert et al., 1998; details: ref Breidert et al., 1998; cited from earlier work
[5] = parameters: method as in earlier work; details: fasting state; upwards; ref VanDenBerg et al., 2003; Di Stefano et al., 2013; Gillman, 2018; cited from earlier work
[6] = tested on: healthy volunteers; assay: Adverse events, adverse symptoms (visual analogue scales) and pupillometry after 400 mg oral tyramine
Procedure: as §1, §2

[7] = human, in vivo, po, 400 mg, t max
[8] = human, in vivo, po, 400 mg, tmax, range

SMILES: O=C(O)Cc1ccc(O)cc1 [4-HPAA, 4-hydroxyphenylacetic acid]
- Baseline recovery in the urine cumulated for 3 h prior to tyramine administration ([1]; human, in vivo): 2.65 (0.67–9.05) mg
- concentration at -3 h ([1]; human, in vivo): 70 ng/mL
- participants with baseline plasma concentration below the limit of quantification ([1]; human, in vivo, -3 h): 84%
- dose recovered in urine in form of 4-HPAA ([1]; human, in vivo, po): 76.8%
- CL renal ([1]; human, in vivo, po, 400 mg): 240 mL/min
- Cmax ([1]; human, in vivo, po, 400 mg): 9040 ng/mL
- half-life ([1]; human, in vivo, po, 400 mg): 1.22 h
- variation of 4-HPAA systemic exposure (plasma AUC) ([1]; human, in vivo, po, 400 mg): up to 3 fold
- AUC(0-inf) ([1]; human, in vivo, po, 400 mg, AUC inf): 21600 ng·h/mL
- Tmax [1, 7]: 1.47 h
- Tmax [1, 8]: 0.483 to 2.5 h
- correlation of systemic concentration with dizziness [2]: positively
- correlation of systemic concentration with dry mouth [2]: weakly
- correlation of systemic concentration with headache [2]: positively
- correlation of systemic concentration with heart palpitation [2]: positively

SMILES: NCCc1ccc(O)cc1 [Tyramine, tyramine]
- AUC(0-inf) ([1]; female, human, in vivo, po, 400 mg): 0.19 µM·h
- AUC(0-inf) ([1]; female, human, in vivo, po, 400 mg, Mean plasma AUCinf): 0.528 µM·h
- Baseline recovery in the urine cumulated for 3 h prior to tyramine administration ([1]; human, in vivo): 0.055 (0.007–0.222) mg
- effect of MAO-A genotypes on tyramine pharmacokinetics or its metabolism to 4-HPAA ([1]; human, in vivo): no significant effects
- effect of polymorphisms in OCT1 and CYP2D6 on tyramine pharmacokinetics or pharmacodynamics ([1]; human, in vivo): did not significantly affect
- Baseline plasma concentration ([1]; human, in vivo, -3 h): 0.39 (0.25 & 0.53) ng/ml
- participants with baseline plasma concentration below the limit of quantification ([1]; human, in vivo, -3 h): 98%
- bioavailability ([1]; human, in vivo, po): < 1%
- AUC(0-inf) ([1]; human, in vivo, po, 400 mg): 62.3 ng·h/mL
- CL renal ([1]; human, in vivo, po, 400 mg): 260 mL/min
- Cmax ([1]; human, in vivo, po, 400 mg): 87 ng/mL
- half-life ([1]; human, in vivo, po, 400 mg): 0.917 h
- Tmax [1, 7]: 0.767 h
- Tmax [1, 8]: 0.217 to 2 h
- correlation of rise in systolic blood pressure with systemic tyramine concentration ([3]; 400 mg oral tyramine): correlated strongly
- participants with blood pressure peaks by >40 mmHg above baseline ([3]; 400 mg oral tyramine): less than 10%
- participants with increases in systolic blood pressure less than 40 mmHg ([3]; 400 mg oral tyramine): 90%
- tyramine concentrations at which blood pressure peaks by >40 mmHg above baseline were observed ([3]; 400 mg oral tyramine): > 60 µg/L
- volunteers with systolic blood pressure increased by more than 10 mmHg ([3]; 400 mg oral tyramine): 71%
- tyramine plasma concentration at which diastolic blood pressure increased ([3]; concentration-effect analyses): higher than 100 µg/l
- tyramine plasma concentration at which systolic blood pressure rises ([3]; concentration-effect analyses, and above): ≥ 60 µg/L
- time of blood pressure reaction after tyramine administration ([3]; one participant, much delayed): 90 min
- OCT1 substrate affinity [4]: substrate with nanomolar affinity
- oral tyramine dose at which the pressor response occurs [5]: ≥ 200 mg
- serious adverse events ([6]; 400 mg oral tyramine, 88 healthy volunteers): no serious adverse events
- pupil size and pupil reaction to light before and after tyramine administration ([6]; repeated pupillometric analyses): no difference
- correlation of systemic concentration with heart palpitation ([6]; visual analogue scales, two-tailed, p < 0.001): Positive correlations
- correlation of systemic concentration with inner restlessness ([6]; visual analogue scales, two-tailed, p = 0.02): Positive correlations

SMILES: CNCCc1ccc(O)cc1 [N-methyltyramine]
- Plasma and urine concentrations ([1]; 400 mg oral tyramine, below the limit of detection): < 1 ng/mL
